In article PMC3867986 (ACS medicinal chemistry letters, 2013):

Columns and labels:
[1] = molecular target: BirA (biotin protein ligase) (Mycobacterium tuberculosis, UniProt I6YFP0); format: binding; conditions: direct stoichiometric titration of BirA, duplicate
Chemical stability = conditions: long-term storage, HPLC analysis

Chain of BirA (biotin protein ligase) (I6YFP0 whole entry, looked up): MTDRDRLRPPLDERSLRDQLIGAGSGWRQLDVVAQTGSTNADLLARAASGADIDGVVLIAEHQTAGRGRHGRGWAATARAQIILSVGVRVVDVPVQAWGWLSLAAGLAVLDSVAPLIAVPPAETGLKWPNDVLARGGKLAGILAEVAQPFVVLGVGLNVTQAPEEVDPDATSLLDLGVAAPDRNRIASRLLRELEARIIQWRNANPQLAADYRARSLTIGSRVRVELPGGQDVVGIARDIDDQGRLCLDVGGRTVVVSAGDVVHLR

Row | Structure (SMILES) | ΔH [1] [kcal/mol] | chemical stability (Chemical stability)
1 | CC(C)(C)C#Cc1nc(N)c2ncn([C@@H]3O[C@H](COS(=O)(=O)NC(=O)CCCC[C@@H]4SC[C@@H]5NC(=O)N[C@@H]54)[C@@H](O)[C@H]3O)c2n1.CCN(CC)CC [Compound 13] | -13.5 | –
2 | CCN(CC)CC.Nc1ncnc2c1ncn2[C@@H]1O[C@H](CCS(=O)(=O)NC(=O)CCCC[C@@H]2SC[C@@H]3NC(=O)N[C@@H]32)[C@@H](O)[C@H]1O [Compound 10] | – | no degradation upon long-term storage
3 | CCN(CC)CC.Nc1nccc2c1ncn2[C@@H]1O[C@H](COS(=O)(=O)NC(=O)CCCC[C@@H]2SC[C@@H]3NC(=O)N[C@@H]32)[C@@H](O)[C@H]1O [Compound 11] | -21.2 | –
